# Test results as given in patent US20180099931A1 (AbbVie S.à.r.l., priority 2016, published 2018).
# Like-named read-outs stand apart in the source and are kept apart here.
# Target: T1, F508delCFTR (Homo sapiens, UniProt P13569, DEL508-508)
# T1 construct: expressed in transfected cells; host or cells: CFBE41o- human lung-derived epithelial cells (CFBE4lo-F508delCFTR-HRP), doxycycline-inducible
# Test: Cell Surface Expression-Horse Radish Peroxidase (CSE-HRP) Assay;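 as to Maximum % activity (with co-corrector): co-corrector and positive control are both the same reference corrector at 2 µM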;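 as to Maximum % activity (without co-corrector): percent of the 2 µM on-plate positive control corrector response above DMSO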
# Assay type: cell-based
# Settings: for Emax / Maximum % activity (with co-corrector): maximum at any tested concentration, normalized to on-plate positive control; for Emax: read-out: Maximum % activity (without co-corrector)
# [1] = test compound without co-corrector
# [2] = test compound without co-corrector, read-out: EC50 (without co-corrector)
# [3] = with co-corrector (2 μM of 3-[(2R,4R)-4-({[1-(2,2-difluoro-1,3-benzodioxol-5-yl)cyclopropyl]carbonyl}amino)-7-methoxy-3,4-dihydro-2H-chromen-2-yl]benzoic acid)
# [4] = with co-corrector (2 μM of 3-[(2R,4R)-4-({[1-(2,2-difluoro-1,3-benzodioxol-5-yl)cyclopropyl]carbonyl}amino)-7-methoxy-3,4-dihydro-2H-chromen-2-yl]benzoic acid), read-out: EC50 (with co-corrector)
# [5] = CSE-HRP, test compound without co-corrector, read-out: EC50 (without co-corrector)
# [6] = CSE-HRP, with co-corrector (2 μM of 3-[(2R,4R)-4-({[1-(2,2-difluoro-1,3-benzodioxol-5-yl)cyclopropyl]carbonyl}amino)-7-methoxy-3,4-dihydro-2H-chromen-2-yl]benzoic acid), read-out: EC50 (with co-corrector)
# [7] = CSE-HRP, with co-corrector (2 μM)
# T1 sequence (P13569 with tags, fused parts or gaps DEL508-508): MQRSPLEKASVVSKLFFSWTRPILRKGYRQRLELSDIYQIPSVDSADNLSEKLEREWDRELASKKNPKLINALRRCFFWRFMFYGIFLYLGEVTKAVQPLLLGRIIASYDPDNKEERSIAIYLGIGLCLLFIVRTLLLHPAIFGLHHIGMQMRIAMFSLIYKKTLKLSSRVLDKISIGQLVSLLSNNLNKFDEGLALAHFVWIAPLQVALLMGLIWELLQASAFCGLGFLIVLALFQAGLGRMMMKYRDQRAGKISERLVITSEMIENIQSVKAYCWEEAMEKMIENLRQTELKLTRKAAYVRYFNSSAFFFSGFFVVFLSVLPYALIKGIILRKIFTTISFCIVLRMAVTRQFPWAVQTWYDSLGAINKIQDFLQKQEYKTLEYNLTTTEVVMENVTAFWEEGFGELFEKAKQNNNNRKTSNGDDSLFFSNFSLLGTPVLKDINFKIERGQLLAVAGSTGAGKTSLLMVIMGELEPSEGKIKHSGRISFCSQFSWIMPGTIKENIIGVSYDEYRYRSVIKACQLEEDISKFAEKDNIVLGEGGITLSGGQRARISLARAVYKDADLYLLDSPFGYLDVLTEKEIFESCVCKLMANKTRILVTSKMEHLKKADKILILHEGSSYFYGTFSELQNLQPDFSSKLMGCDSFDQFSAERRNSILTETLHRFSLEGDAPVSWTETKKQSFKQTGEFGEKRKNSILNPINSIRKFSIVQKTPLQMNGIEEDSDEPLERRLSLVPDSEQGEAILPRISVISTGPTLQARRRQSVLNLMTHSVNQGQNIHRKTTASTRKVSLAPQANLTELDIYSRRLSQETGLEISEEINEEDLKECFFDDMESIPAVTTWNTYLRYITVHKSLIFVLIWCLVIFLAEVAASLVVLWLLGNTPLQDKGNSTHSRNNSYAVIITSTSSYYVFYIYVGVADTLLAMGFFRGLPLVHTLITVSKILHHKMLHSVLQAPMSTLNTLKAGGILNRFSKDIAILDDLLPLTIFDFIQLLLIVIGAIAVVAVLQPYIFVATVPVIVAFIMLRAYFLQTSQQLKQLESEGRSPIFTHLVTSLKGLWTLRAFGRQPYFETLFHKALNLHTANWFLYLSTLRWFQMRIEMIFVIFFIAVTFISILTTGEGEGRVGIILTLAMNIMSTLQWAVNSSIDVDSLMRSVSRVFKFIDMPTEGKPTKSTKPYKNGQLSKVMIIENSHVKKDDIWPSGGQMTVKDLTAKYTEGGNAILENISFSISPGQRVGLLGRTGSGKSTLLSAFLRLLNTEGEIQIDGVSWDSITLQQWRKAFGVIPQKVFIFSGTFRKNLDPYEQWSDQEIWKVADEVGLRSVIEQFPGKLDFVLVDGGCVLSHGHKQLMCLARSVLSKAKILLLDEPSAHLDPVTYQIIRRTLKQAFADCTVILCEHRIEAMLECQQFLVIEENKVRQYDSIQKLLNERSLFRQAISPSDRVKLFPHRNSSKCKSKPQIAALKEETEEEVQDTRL
Structure (SMILES),Emax [1],EC50 [2],Maximum % activity (with co-corrector) [3],EC50 [4],Maximum % activity (with co-corrector) (with co-corrector (2 μM)),EC50 [5],EC50 [6],Maximum % activity (with co-corrector) [7],"Emax (CSE-HRP, without co-corrector)",Emax (without co-corrector),"Maximum % activity (with co-corrector) (CSE-HRP, with co-corrector (2 μM), 2 µM)"
C/C=C/CC(C/C=C/C)C(=O)N1[C@H](C(=O)O)[C@@H](C(C)(C)C)[C@H](NCc2cc(C(C)(C)C)ccc2OC)[C@@H]1c1ccccc1 [II-439],> 200%,1 to 10 µM,+++ (≥350),< 1 µM,,,,,,,
CC(C)(C)NC(=O)c1cncc(N[C@H]2[C@H](C(C)(C)C)[C@@H](C(=O)O)N(C(=O)C3CCCCC3)[C@H]2c2ccccc2)c1 [III-161],< 100%,> 10 µM,,> 10 µM,+ (<150),,,,,,
COc1ccc(Cc2ccccc2)cc1CN[C@H]1[C@H](C(C)(C)C)[C@@H](C(=O)O)N(C(=O)C2CCCCC2)[C@H]1c1ccccc1 [II-191],,,,,,1 to 10 µM,< 1 µM,+++ (≥350),> 200%,,
COc1ccc(C23CC(C2)C3)cc1CN[C@H]1[C@H](C(C)(C)OC)[C@@H](C(=O)O)N(C(=O)OC(C)C)[C@H]1c1cccnc1N(C)C [II-501],> 200%,1 to 10 µM,+++ (≥350),1 to 10 µM,,,,,,,
COc1ccc(C(F)(F)F)cc1CN[C@H]1[C@H](C(C)(C)C)[C@@H](C(=O)O)N(C(=O)[C@@H]2CCCO2)[C@H]1c1ccccc1C(C)C [II-595],> 200%,< 1 µM,+++ (≥350),< 1 µM,,,,,,,
Cc1cc(C(F)(F)F)cc(N[C@H]2[C@H](C(C)(C)C)[C@@H](C(=O)O)N(C(=O)C3CCCCC3)[C@H]2c2ccccc2C)n1 [II-575],100 to 200%,1 to 10 µM,+++ (≥350),1 to 10 µM,,,,,,,
"COc1ccc(C(C)(C)C)cc1CN[C@H]1[C@H](C(C)(C)C)[C@@H](C(=O)O)N(C(=O)C2CCC2)[C@H]1c1cccnc1N1CCC1 [Example 102, (2S,3S,4S,5S)-5-[2-(azetidin-1-yl)pyridin-3-yl]-3-tert-butyl-4-{[(5-tert-butyl-2-methoxyphenyl)methyl]amino}-1-(cyclobutanecarbonyl)pyrrolidine-2-carboxylic acid]",,1 to 10 µM,,1 to 10 µM,+++ (≥350),,,,,100 to 200%,
COc1ccc(C(F)(F)F)cc1CN[C@H]1[C@H](C(C)(C)C)[C@@H](C(=O)O)N(C(=O)C2CCCCC2)[C@H]1c1cccnc1C [II-93],,,,,,1 to 10 µM,1 to 10 µM,+++ (≥350),100 to 200%,,
"COc1ncc(C(F)(F)F)cc1CN[C@H]1[C@H](C23CC(C2)C3)[C@@H](C(=O)O)N(C(=O)C2CCCCC2)[C@H]1c1ccccc1 [Example 57, (2S,3S,4S,5S)-3-(bicyclo[1.1.1.1]pentan-1-yl)-1-(cyclohexanecarbonyl)-4-({[2-methoxy-5-(trifluoromethyl)pyridin-3-yl]methyl}amino)-5-phenylpyrrolidine-2-carboxylic acid]",,< 1 µM,,< 1 µM,+++ (≥350),,,,,100 to 200%,
"COc1ccc(C(C)(C)C)cc1CN[C@H]1[C@H](C(C)(C)C)[C@@H](C(=O)O)N(C(=O)C(OC)C2CC2)[C@H]1c1ccccc1 (single isomer, unassigned) [Example I-95]",,1 to 10 µM,,1 to 10 µM,+++ (≥350),,,,,> 200%,
COc1ccc(C23CC(C2)C3)cc1CN[C@H]1[C@H](C(C)(C)C)[C@@H](C(=O)O)N(C(=O)OC(C)C)[C@H]1c1cccnc1OC [Example I-224],,1 to 10 µM,,1 to 10 µM,+++ (≥350),,,,,100 to 200%,
COc1ccc(C2(C)CCC2)cc1CN[C@H]1[C@H](C(C)(C)C)[C@@H](C(=O)O)N(C(=O)[C@H]2CCCCO2)[C@H]1c1cccnc1OC [III-234],100 to 200%,1 to 10 µM,,1 to 10 µM,+++ (≥350),,,,,,
"COc1ccc(C(C)(C)C)cc1CN[C@H]1[C@H](C(C)(C)C)[C@@H](C(=O)O)N(C(=O)[C@@H]2CCCCO2)[C@H]1c1ccccc1OC(F)F [Example 59, (2S,3S,4S,5S)-3-tert-butyl-4-{[(5-tert-butyl-2-methoxyphenyl)methyl]amino}-5-[2-(difluoromethoxy)phenyl]-1-[(2S)-oxane-2-carbonyl]pyrrolidine-2-carboxylic acid]",,1 to 10 µM,,< 1 µM,+++ (≥350),,,,,> 200%,
"COCCS(=O)(=O)NC(=O)[C@H]1[C@H](C(C)(C)C)[C@@H](Nc2cc(C(F)(F)F)cc(C)n2)[C@@H](c2ccccc2)N1C(=O)C1CCCCC1 (racemic) [Example III-49, rac-(2R,3R,4R,5R)-3-(tert-butyl)-1-(cyclohexanecarbonyl)-N-((2-methoxyethyl)sulfonyl)-4-((6-methyl-4-(trifluoromethyl)pyridin-2-yl)amino)-5-phenylpyrrolidine-2-carboxamide]",< 100%,> 10 µM,++ (≥150 and <350),1 to 10 µM,,,,,,,
CCn1ccc(=O)c(C(=O)N2[C@H](C(=O)O)[C@@H](C(C)(C)C)[C@H](NCc3cc(C(C)(C)C)ccc3OC)[C@@H]2c2ccccc2)c1 [Example I-101],,> 10 µM,,> 10 µM,+ (<150),,,,,< 100%,
COc1ccc(C(C)(C)C)cc1CN[C@H]1[C@H](C(C)(C)C)[C@@H](C(=O)O)N(C(=O)C2CCCCC2C)[C@H]1c1cccnc1N(C)C (stereo partly drawn) [III-205],> 200%,1 to 10 µM,,< 1 µM,+++ (≥350),,,,,,
COc1ccc(C(C)(C)C)cc1CN[C@H]1[C@H](C(C)(C)C)[C@@H](C(=O)O)N(C(=O)[C@@H](C)Oc2ccccc2)[C@H]1c1ccccc1 [Example I-137],,1 to 10 µM,,1 to 10 µM,+++ (≥350),,,,,> 200%,
COc1ccc(C(F)(F)F)cc1CN[C@H]1[C@H](C(C)(C)C)[C@@H](C(=O)O)N(C(=O)[C@@H]2CCCCO2)[C@H]1c1cccc2c1OCC2 [Example I-299],,,,,,1 to 10 µM,1 to 10 µM,+++ (≥350),100 to 200%,,
CCn1c(C)c(CC(=O)N2[C@H](C(=O)O)[C@@H](C(C)(C)C)[C@H](NCc3cc(C(C)(C)C)ccc3OC)[C@@H]2c2ccccc2)c2ccccc21 [II-172],,,,,,1 to 10 µM,< 1 µM,+++ (≥350),> 200%,,
"COc1ncc(C(F)(F)F)cc1CN[C@H]1[C@H](C(C)(C)C)[C@@H](C(=O)O)N(C(=O)[C@@H]2CCCO2)[C@H]1c1ccccc1C(C)C [Example 95, (2S,3S,4S,5S)-3-tert-butyl-4-({[2-methoxy-5-(trifluoromethyl)pyridin-3-yl]methyl}amino)-1-[(2S)-oxolane-2-carbonyl]-5-[2-(propan-2-yl)phenyl]pyrrolidine-2-carboxylic acid]",,< 1 µM,,< 1 µM,+++ (≥350),,,,,> 200%,
COc1ccc(C2CCCC2)cc1CN[C@H]1[C@H](C(C)(C)OC)[C@@H](C(=O)O)N(C(=O)C2CCCCC2)[C@H]1c1ccccc1 [II-256],,,,,,< 1 µM,< 1 µM,+++ (≥350),> 200%,,
COc1ccc(Cl)cc1CN[C@@H]1[C@@H](C2CC2)[C@H](C(=O)O)N(C(=O)N(C(C)C)C(C)C)[C@@H]1c1ccccc1 (racemic) [III-48],< 100%,> 10 µM,++ (≥150 and <350),1 to 10 µM,,,,,,,
"COc1ccc(C(F)(F)F)cc1CN[C@H]1[C@H](C(C)(C)C)[C@@H](C(=O)O)N(C(=O)C2Cc3ccccc3O2)[C@H]1c1ccccc1 (single isomer, unassigned) [II-265]",,,,,,1 to 10 µM,1 to 10 µM,,< 100%,,++ (≥150 and <350)
COc1ncc(C(F)(F)F)cc1CN[C@H]1[C@H](C(C)(C)C)[C@@H](C(=O)O)N(C(=O)C2CCc3ccc(F)cc3O2)[C@H]1c1ccccc1 (stereo partly drawn) [II-435],< 100%,1 to 10 µM,++ (≥150 and <350),1 to 10 µM,,,,,,,
COc1ccc(OC(F)(F)F)cc1CN[C@H]1[C@H](C(C)(C)C)[C@@H](C(=O)O)N(C(=O)OC(C)C)[C@H]1c1ccccc1 [II-523],> 200%,1 to 10 µM,+++ (≥350),1 to 10 µM,,,,,,,
COc1ccc(C(C)(C)C)cc1CN[C@H]1[C@H](C(C)(C)C)[C@@H](C(=O)O)N(C(=O)CC2CC(=O)c3ccccc32)[C@H]1c1ccccc1 (stereo partly drawn) [II-217],,,,,,1 to 10 µM,< 1 µM,+++ (≥350),> 200%,,
"COc1ccc(C(C)(C)C)cc1CN[C@H]1[C@H](C(C)(C)C)[C@@H](C(=O)O)N(C(=O)C2CCCN(C)C2=O)[C@H]1c1ccccc1 (single isomer, unassigned) [Example I-191]",,1 to 10 µM,,1 to 10 µM,+++ (≥350),,,,,> 200%,
